These results are taken from US6011019A, “Vasoactive effects and free radical generation by β-amyloid peptides” (University of South Florida, priority 1996, dated 2000).

In data set [1] the test system is human aortic endothelial cel line (HAEC).
Description: (§2) All these cells were maintained at 37° C., under an atmosphere containing 5% CO2. For the present experiments, HAEC and BE(2)-M17 were seeded at densities of 2×10^4 cells per well in 24-23ll clusters.
(§3) The experiments were terminated one half, one, two and three hours post treatment by detachment with Trypsin/EDTA solution and followed by a toxicity assay with trypan blue exclusion. In parallel experiments, cells were attached to a round Thermanox (Nunc) at the bottom of the well, and were stopped three to 24 hours post treatment by fixation with 4% neutral formalin solution which was followed by Hematoxylin-Eosin stain to show morphology.
(§4) Morphological changes in cells were monitored throughout the course of the experiment with an inverse phase-contrast microscope. After termination of the experiments, the cells fixed on the Thermanox were subjected to routine Hematoxylin-Eosin (HE) stain. The morphological characteristics of toxic cells were observed under light microscope and typical results were recorded by photographs.
(§5) For approximate quantification of Aβ toxicity of HAEC, modified procedure for trypan blue exclusion was employed. In brief, the detached cells were resuspended with an appropriate volume of culture media, 20 μl of this cell suspension was mixed with an equivalent volume of 4% Trypan-blue solution thoroughly, and allowed to sit for two minutes after mixing. Approximately 9 μl of the mixture was transferred to a hemocytometer for cell counting. The cell viability was determined by the equation: [formula] In the case of severe toxicity, where some of the cells were lysed, the total cell numbers were adjusted by that of controls. In this experiment, counts for each sample were triplicated.
A further data set deals with rat aorta. Description: Enhancement of endothelin-1 (ET-1) induced vasoconstriction of rat aorta. The following applies: for enhancement of ET-1 contraction: peptide 1 μM (Aβ25-35 1 μM and 5 μM) ten minutes prior to first ET-1 dose. Here is the method: Normal Sprague-Dawley rats were sacrificed by decapitation, and freshly dissected rat aorta was segmented into rings and suspended in Ringers buffer using a tensiometer linked to the MacLab system. Following a two hour equilibration period, the "pretreatment" contraction was carried out. The aortic rings were contracted using a range of doses of endothelin-1 and relaxed using a single odes of acetylcholing (Ach(10^-7 M)). […] The dose of each Aβ peptide was 1 μM, with the exception of Aβ25-35 (1 μM and 5 μM), and was added ten minutes prior to the first ET-1 dose. For SOD treatment we added 150 U/ml 30 seconds before the addition of Aβ.
Endothelium was removed by gently passing a glass pipette, dipped in saline solution, through the lumen of the aortae several time, allowing the pipette to gently brush the endothelial surface. Endothelium was removed from the aortae prior to hanging in the tissue bath system. Both pre-and post treatment contractions involved a single does of ET-1 (5×10^-9 M).
In all cases the mean difference in percentage contraction in the pre- and post-contractions (before and after addition of test compound respectively) was measured, and compared between the two. Endogenous production of ET-1 was measured using an ET-1 RIA kit (Peninsula Laboratories).

Data set [2] relates to human neuroblastoma cell line (BE(2)-M17). Description: Aβ toxicity on BE(2)-M17 (trypan blue exclusion). The following applies: same concentrations as HAEC cultures, up to day eight; data not shown. The format is cell-based. The source says: Trypan blue exclusion was used for the cell viability assay.
In the next data set the test system is rat coronary arteries. Description: Rat coronary artery constriction and relaxation (U46619, acetylcholine). Conditions: for constriction of rat coronary artery by the peptide: 10^-6 M peptide. Here is the method:
The effects of β-amyloid peptide were examined on samples of rat coronary arteries prepared as described above. Referring specifically to FIG. 1, rat coronary arteries were treated with β-amyloid peptide (Aβ40) causing constriction of the coronary arteries.
FIG. 3 illustrates the effect of various amyloid fragments on the constriction of rat coronary arteries. Following control constriction with 10^-7 M U46619, the tissue samples were rinsed, equilibrated with buffer, and treated with 10^-6 M Aβ peptides for fifteen minutes. Following treatment with the Aβ peptides, the blood vessels were rinsed and again exposed to U46619. The values are expressed as percent of control constriction produced by U46619 alone.
The effect of pretreatment of coronary arteries with a single dose (10^-6 M) of A40 on acetylcholine induced relaxation is shown in FIG. 20. The blood vessel was preconstricted with 10^-7 M U46619 and relaxed with increasing doses of acetylcholine (10^-9 M to 10^-5 M).

In data set [3] the test system is human aortic endothelial cel line (HAEC). Description: Aβ toxicity on HAEC and its prevention (trypan blue exclusion, HE stain). Conditions: pimozide 10 μM, three hours post treatment.
Description: as §2, §3, §4, §5
The next data set relates to blood vessel (rat aorta). The experiment in a line: Vascular response of blood vessel rings in tissue bath (basal tension, β-amyloid induced vasoactivity). On the procedure: Freshly excised rat and porcine blood vessels were placed in Kreb's bicarbonate buffer equilibrated with 5% CO2 in O2. The buffer composition consisted of 118.2 mM NaCl, 4.7 mM KCl, 1.2 mM MgSO4, 2.5 mM CaCl2, 1.2 mM NaH2 PO4, 23 mM NaHCO3 and 11.2 mM glucose. After cleaning the vessels free of fat and other adhering tissues, the vessels were cut into ring segments of approximately 3 mm in length. Care was taken not to damage the intimal surface.
The endothelium was removed from some preparations by rubbing the inside of the lumen with a metal spatula for six to ten seconds and subsequent rinsing with buffer. The removal of endothelium was confirmed by testing for relaxation to acetylcholine [Furchgott and Zawadzki, 1980].
(§1) The blood vessel preparations were mounted on stainless steel hooks attached to a force-displacement transducer and equilibrated under the optimum tension of 1.3 g for a period of sixty minutes in a tissue bath (10 ml) containing oxygenated (5% CO2 in O2) Kreb's buffer at 37° C. The buffer was changed every fifteen minutes. After equilibration for sixty minutes the viability of the blood vessel with intact endothelium was established by constricting the blood vessel using phenylephrine ([…]). This dose of phenylephrine elicited 80% of the maximum response. […] The vessel preparations were washed for fifteen minutes before various manipulations as described below.
Referring to FIG. 10, the arrow indicates the addition of 10^-6 M β-amyloid. The control tissue received no β-amyloid. SOD (150 units/ml) was added thirty seconds prior to the addition of β-amyloid. The maximum contraction induced by β-amyloid was 1.14±0.13 (g) and in presence of SOD the contraction was reduced to 0.04±0.02 (g). Values represent the mean±SEM of five separate experiments.

The test system of the next data set is aortic rings. Description: β-amyloid augmentation of phenylephrine (PE) induced contraction of aortic rings. Also on record: species or system rat. Conditions: for effect on β-amyloid induced enhancement of PE mediated contraction: β-amyloid 5×10^-7 M, PE 4×10^-8 M, L-NMMA 10^-4 M, indomethacin 10^-5 M, SQ 29548 10^-5 M, catalase 1000 units/ml. On the procedure:
as §1
The procedure was then repeated following incubation of the tissue with 10^-6 M β-amyloid for fifteen minutes (P1). The tissue was then rinsed and contractions repeated twice following fifteen minute incubation (P2 & P3) without further addition of β-amyloid. Arrows are shown for points of addition for P3.
Following a fifteen minute incubation, the preparations were contracted with 10^-7 M phenylephrine (PE) as described earlier. Control contractions with PE alone were carried out in presence of the various test compounds. Values represent the mean±SEM of four or more experiments. The heat-inactivated SOD was prepared by placing it in boiling water for thirty minutes followed by cooling prior to use. The hydrogen peroxide-inactivated SOD was prepared by exposing SOD to 10 mM H2 O2 for thirty minutes at pH 8.5 and subsequent separation using Microcon filtration system. The amyloid induced PE contraction was blocked by active SOD. Neither albumin or inactivated SOD had any effect on the amyloid activity.
The effect of preincubation of blood vessel with 10^-6 M β-amyloidon contraction induced by phenylephrine (2, 4, 8, & 16×10^-8 M is shown in Table 1). The maximum contraction in the absence of β-amyloid is taken as 100% and the values obtained following exposure to β-amyloid are expressed as percent of control value. After washing out phenylephrine and acetylcholine of the control contraction, β-amyloid augmented the phenylephrine induced contractions (P1). This effect was blocked by SOD. Washing out the phenylephrine and acetylcholine of the post peptide contraction and repeating the contractions caused further enhancement (P2). Values represent the mean±SEM of nine or more experiments.
The tissue was then incubated for fifteen minutes with β-amyloid (5×10^-7 M) with or without the drug, followed by contractions with PE. The concentrations compounds used were: L-NMMA, an inhibitor of NO synthase (10^-4 M); indomethacin, an inhibitor of the cyclooxygenase pathway (10^-5 M); SQ 29548, a thromboxane A2 receptor antagonist (10^-5 M); and catalase (1000 units/ml). Values are represented as percentage of the maximal contraction obtained with β-amyloid and PE alone and standardized to remove the intrinsic effects (if any) of each drug on PE contraction alone. The results represent the mean±SEM of five or more experiments.

Take “Aβ25-35: fragment of Aβ, widely regarded to be the neurotoxic fragment (GSNKGAIIGLM; Amyloid-beta protein 42; UniProt P05067 696-706, looked up, fragment)”: in data set [1], the “cell morphology by HE staining” value was “highly vacuolized cytoplasm, blebbing cell membranes and swelling cell bodies”; the “cell viability one half hour post treatment” value is “significant reduction of cell viability”; the “time and dose dependence of toxic effects on HAEC” value is given as “time-and dose-dependent manner”. Moreover, the “enhancement of ET-1 contraction” value in the data set with rat aorta is reported as “unable to enhance contraction even at five times the concentration of Aβ1-40”. The “toxic effect on differentiated BE(2)-M17 cells” value in data set [2] is recorded as “not toxic effect was noticed”. Further, in the data set on rat coronary arteries, the “constriction of rat coronary artery by the peptide” value is reported as “induce constriction of the coronary artery”.

In the case of `Oc1ncnc2[nH]ncc12` [allopurinol], in the data set on rat aorta, the “effect of allopurinol on Aβ enhancement” value is given as “No effect on Aβ enhancement”.

With `O=c1[nH]c2ccccc2n1C1CCN(CCCC(c2ccc(F)cc2)c2ccc(F)cc2)CC1` [pimozide], the “own toxicity of the blocker on HAEC” value in data set [3] was “seems to be toxic itself”.

With `CNC[C@H](O)c1cccc(O)c1` [phenylephrine], the Emax at 1000 µM in the data set on blood vessel (rat aorta) (Rattus norvegicus, phenylephrine (1 mM), viability test of vessel, read-out: response elicited, of the maximum response) stood at 80%. The “constriction of blood vessel” value in the data set on blood vessel (rat aorta) (with or without endothelium) is “constricted in response to phenylephrine with or without endothelium”.

As to `COc1ccc(CCN(C)CCCC(C#N)(c2ccc(OC)c(OC)c2)C(C)C)cc1OC` (stereo not shown) [verapamil], in the data set with rat aorta (verapamil 50 μM), the “ET-1 contraction with the compound alone” value is “caused enhancement of contraction”. Also, the “effect on Aβ enhancement of ET-1 contraction” value in the data set on rat aorta (verapamil 50 μM two minutes before Aβ, endothelium present) is “had no effect on Aβ enhancement”.

With Aβ1-28: β-amyloid peptide fragment 1-28, the “constriction of rat coronary artery by the peptide” value in the data set with rat coronary arteries is “induce constriction of the coronary artery”.

For “Aβ1-42: β-amyloid peptide with forty-two amino acids; supplied by RBI and/or MD Enterprise”, in data set [1], the “cell morphology by HE staining” value was “highly vacuolized cytoplasm, blebbing cell membranes and swelling cell bodies”; the “cell viability one half hour post treatment” value is “significant reduction of cell viability”; the “time and dose dependence of toxic effects on HAEC” value was “time-and dose-dependent manner”. Further, in the data set with rat aorta, the “enhancement of vasoconstriction compared with Aβ1-40” value was “decreased enhancement of vasoconstriction” and the “enhancement of ET-1 contraction” value was “also enhanced the ET-1 contraction”. The “toxic effect on differentiated BE(2)-M17 cells” value in data set [2] is given as “not toxic effect was noticed”.

Consider catalase, for which the “effect on β-amyloid induced enhancement of PE mediated contraction” value (“effect on β-amyloid induced enhancement” for short) with aortic rings is “None of the compounds exerted any significant effect”.

Regarding albumin, in the data set on aortic rings (preincubation before 10^-6 M β-amyloid, 10^-7 M PE), the “protection against β-amyloid enhancement of PE induced contraction” value is on record as “did not protect”.

`O=C(O)CCC/C=C\C[C@@H]1[C@H](CNNC(=O)Nc2ccccc2)[C@H]2CC[C@@H]1O2` [SQ 29548]: the “effect on β-amyloid induced enhancement” value with aortic rings is “None of the compounds exerted any significant effect”.

For the compound `CNC(=N)NCCC[C@H](N)C(=O)O` [L-NMMA], in the data set on aortic rings, the “effect on β-amyloid induced enhancement” value is “None of the compounds exerted any significant effect”.

Consider `COc1ccc2c(c1)c(CC(=O)O)c(C)n2C(=O)c1ccc(Cl)cc1` [indomethacin], for which, in the data set on aortic rings, the “effect on β-amyloid induced enhancement” value was “None of the compounds exerted any significant effect”.

Turning to `CCCCC[C@H](O)/C=C/[C@@H]1[C@@H](C/C=C\CCCC(=O)O)[C@H]2CO[C@@H]1C2` [U46619], the “constriction of rat coronary artery by vasoconstrictor” value with rat coronary arteries (10^-7 M) is given as “caused constriction of the blood vessel”.
